Reference: US5646146A, “Heterocyclic compounds and their preparation and use” (Novo Nordisk A/S, priority 1993, dated 1997)

How the values were obtained:
[1] = test system: glycine site coupled to the NMDA ionophore complex; details: literature citations; cited from earlier work
[2] = target: T1, glycine site of the NMDA receptor complex (Rattus norvegicus, UniProt P35439); test: In vitro [3H]-glycine binding to rat brain membranes (Test 1); design: species or system rat (male Wistar); details: 50% displacement of specific [3H]-glycine binding; 50 nM [3H]-glycine, 4° C., 30 min
T1 construct: Crude synaptic (P2) membranes are prepared from rat forebrains; from tissue; host or cells: rat forebrain (male Wistar), crude synaptic (P2) membranes, Triton X-100 washed
Method: The compounds according to the invention were tested as regards the affinity for one or more of the different types of excitatory amino acid receptors and studied in simple radioligand binding experiments. In essence, the method involves incubation of a particular selected radio-labelled ligand and the particular specific substance to be investigated with brain homogenates which contain the receptor. Measurement of receptor occupancy is made by determination of the specific radioactivity bound to the homogenate.
This will make them useful in the treatment of any of the numerous indications caused by hyperactivity of excitatory amino acids.
The glycine site binding activity of these compounds of the present invention can be illustrated by determining their capability for displacing radioactively labelled glycine from the glycine site.
The displacement activity of the compounds may be shown by determining the IC50 value which represents the concentration (μM) which causes a displacement of 50% of the specific binding of [^3 H]-glycine.
In vitro [^3 H]-Glycine Binding to Rat Brain Membranes (Test 1)
The membrane preparation and assay of specific [^3 H]-glycine binding is based upon methodology described by Haring et al. (1991) J. Neurochem. 57, 323-332 and Yoneda et al. (1991) J. Neurochem. 55, 237-244.
All steps are performed at 4° C. Buffers are prepared fresh each week from distilled, deionized water and filtered through sterile 0.2 μm membranes to eliminate artifacts due to microbial contamination. Crude synaptic (P2) membranes are prepared from rat forebrains freshly dissected from male Wistar rats and washed 4 times with low ionic strength buffer. On the day of the assay these preparations are additionally washed with buffer containing a low concentration (0.08% g/g) of Triton X-100, and then twice more in the absence of this detergent. The procedure is aimed at the disruption of synaptic membrane vesicles and removal of endogenous amino acids.
Specific radioligand binding is measured by incubating membranes (400-600 μg/ml of protein) with 50 nM [^3 H]-glycine in the presence or absence of 1 mM of unlabelled glycine at 4° C. for 30 min. Free and bound ligand are separated by centrifugation. Each pellet is rinsed 2× and bound radioactivity measured by liquid scintillation counting. Test substances are substituted for Unlabelled glycine in the assay.

[3] = test system: convulsions induced by i.c.v. infusion of NMDA; test: Convulsions induced by i.c.v. infusion of NMDA, TV50 (Test 2); assay type: in vivo, mouse (male NMRI); details: dose infused i.c.v. per minute with NMDA to increase time to onset of clonic seizures by 50%
Method: The glycine antagonists are co-infused with NMDA and their anti-convulsive effect is measured by determining a) the TV50 value which represents the dose (μg/kg) of the glycine antagonist that has to be infused per minute in order to increase time to onset of clonic seizures by 50%, b) the ED50 value which represents the dose (μg/kg) of the glycine antagonist that has to be infused per minute in order to protect 50% of the animals against clonic seizures for 150 seconds after the start of i.c.v. infusion.
Convulsions induced by i.c.v. infusion of NMDA (Test 2 & 3)
58.84 μg/ml (1 nmol in 2.5 μl) of NMDA (Sigma) dissolved in 0.9% NaCl is co-infused i.c.v. with a glycine antagonist at a speed of 5 μl/min. Infusion is performed through a cannula placed 1 mm posterior and 1 mm lateral to the Bregma point. The cannula is injected 4.3 mm into the skull of male NMRI mice weighing 25 g (range 23-27 g). Placement and length of the cannula into the skull is fixed by a plate positioned 4.3 mm from the point of the cannula. The infusion is stopped after the appearance of clonic seizures in all extremities or 150 seconds after the start time of the infusion. At least 5 doses of each glycine antagonist are tested using 8 mice per dose.

| SMILES | activity at the glycine site (agonist/antagonist, in words) [1] | IC50 [2] [nM] | Test 2 TV50 [3] [µg/kg] |
| --- | --- | --- | --- |
| NC1CCN(O)C1=O (stereo not shown) [HA-966, 3-amino-1-hydroxy-2-pyrrolidone] | weak antagonists | – | – |
| N[C@@H]1CONC1=O [D-cycloserine] | partial agonists | – | – |
| O=C(O)c1cc(O)c2ccc(Cl)cc2n1 [Example 7-Cl-Kyn, 7-chloro-kynurenic acid] | quite strong antagonists | – | – |
| O=C1c2ccccc2-c2[nH]c(=O)c(=O)[nH]c21 [Example 2, 9H-Indeno[1,2-b]pyrazine-2,3,9(1H,4H)-trione] | – | 920 | 44 |
| O=c1[nH]c2c([nH]c1=O)C(O)c1ccccc1-2 (stereo not shown) [Example 11, 9-Hydroxy-9H-indeno[1,2-b]pyrazine-2,3(1H,4H) -dione] | – | 920 | 5.0 |
| CN1CCN(C2c3ccccc3-c3[nH]c(=O)c(=O)[nH]c32)CC1 (stereo not shown) [Example 18, 9-(4-Methyl-1-piperazinyl)-9H-indeno[1,2-b]pyrazine-2,3(1H,4H)-dione] | – | 150 | 4.5 |
| N#Cc1cc2[nH]c(=O)c(=O)[nH]c2cc1[N+](=O)[O-] [CNQX, 6-cyano-7-nitroquinoxaline-2,3-dione] | weak antagonists | – | – |
| C[C@@H](N)C(=O)O [D-alanine] | strong agonist activity | – | – |
| N[C@H](CO)C(=O)O [D-serine] | strong agonist activity | – | – |
| O=c1cnc2c([nH]1)-c1ccccc1C21OCCO1 [Example 6, 9H-Indeno[1,2-b]pyrazine-3,9(4H)-dione 9-ethylene acetal] | – | 3700 | – |
